Data reported in ChEMBL document CHEMBL3885881, “DrugMatrix”.

Species: Rattus norvegicus
Assay: DrugMatrix - Regimen: Daily Repeat
Format: toxicity, organism-based, Sprague-Dawley
Design: regimen Daily Repeat, gender Male, age 6-8 weeks
Details: in vivo, po, 72 h, route oral GAVAGE, time 3 day, vehicle .5 % CMC; for ABSOLUTE BASOPHIL / ABSOLUTE EOSINOPHIL / ABSOLUTE LYMPHOCYTE / ABSOLUTE MONOCYTE / ABSOLUTE SEGMENTED NEUTROPHIL / BASOPHIL / EOSINOPHIL / ERYTHROCYTE COUNT / HEMATOCRIT / HEMOGLOBIN / LEUKOCYTE COUNT / LYMPHOCYTE / MEAN CORPUSCULAR HEMOGLOBIN / MEAN CORPUSCULAR HEMOGLOBIN CONCENTRATION / MEAN CORPUSCULAR VOLUME / MONOCYTE / NEUTROPHIL / NUCLEATED RED BLOOD CELLS / PLATELET COUNT: tissue Blood; for ALANINE AMINOTRANSFERASE / ALBUMIN / ALKALINE PHOSPHATASE / ASPARTATE AMINOTRANSFERASE / BLOOD UREA NITROGEN / CARBON DIOXIDE / CHLORIDE / CHOLESTEROL / CREATINE PHOSPHOKINASE / CREATININE / GLUCOSE / LACTATE DEHYDROGENASE / LIPASE / PHOSPHORUS / POTASSIUM / SODIUM / TOTAL BILIRUBIN / TOTAL PROTEIN / URIC ACID: tissue Plasma

Compound: C=C1CC[C@H](O)C/C1=C/C=C1\CCC[C@]2(C)[C@@H]([C@H](C)/C=C/[C@H](C)C(C)C)CC[C@@H]12 [ERGOCALCIFEROL]
- ABSOLUTE BASOPHIL (0 mg/kg, dose level Control): 0 CELLS/uL
- ABSOLUTE EOSINOPHIL (0 mg/kg, dose level Control): 8.83 CELLS/uL
- ABSOLUTE LYMPHOCYTE (0 mg/kg, dose level Control): 7222.33 CELLS/uL
- ABSOLUTE MONOCYTE (0 mg/kg, dose level Control): 0 CELLS/uL
- ABSOLUTE SEGMENTED NEUTROPHIL (0 mg/kg, dose level Control): 752.17 CELLS/uL
- BASOPHIL (0 mg/kg, dose level Control): 0%
- EOSINOPHIL (0 mg/kg, dose level Control): 0.17%
- ERYTHROCYTE COUNT (0 mg/kg, dose level Control): 5.22 x10E6/uL
- HEMATOCRIT (0 mg/kg, dose level Control): 32.6%
- HEMOGLOBIN (0 mg/kg, dose level Control): 12.43 G/DL
- LEUKOCYTE COUNT (0 mg/kg, dose level Control): 7.98 x10E3/uL
- LYMPHOCYTE (0 mg/kg, dose level Control): 91.17%
- MEAN CORPUSCULAR HEMOGLOBIN (0 mg/kg, dose level Control): 23.87 pg
- MEAN CORPUSCULAR HEMOGLOBIN CONCENTRATION (0 mg/kg, dose level Control): 38.18 G/DL
- MEAN CORPUSCULAR VOLUME (0 mg/kg, dose level Control): 62.48 fL
- MONOCYTE (0 mg/kg, dose level Control): 0%
- NEUTROPHIL (0 mg/kg, dose level Control): 8.67%
- NUCLEATED RED BLOOD CELLS (0 mg/kg, dose level Control): 0 /100WBC
- PLATELET COUNT (0 mg/kg, dose level Control): 1082.33 x10E3/uL
- ALANINE AMINOTRANSFERASE (0 mg/kg, dose level Control): 42.17 u/L
- ALBUMIN (0 mg/kg, dose level Control): 4.33 G/DL
- ALKALINE PHOSPHATASE (0 mg/kg, dose level Control): 451.17 u/L
- ASPARTATE AMINOTRANSFERASE (0 mg/kg, dose level Control): 76.17 u/L
- BLOOD UREA NITROGEN (0 mg/kg, dose level Control): 13.33 mg/dL
- CARBON DIOXIDE (0 mg/kg, dose level Control): 31.67 mmol/L
- CHLORIDE (0 mg/kg, dose level Control): 96.5 MEQ/L
- CHOLESTEROL (0 mg/kg, dose level Control): 78 mg/dL
- CREATINE PHOSPHOKINASE (0 mg/kg, dose level Control): 216.5 u/L
- CREATININE (0 mg/kg, dose level Control): 0.22 mg/dL
- GLUCOSE (0 mg/kg, dose level Control): 137 mg/dL
- LACTATE DEHYDROGENASE (0 mg/kg, dose level Control): 138.5 u/L
- LIPASE (0 mg/kg, dose level Control): 8.67 u/L
- PHOSPHORUS (0 mg/kg, dose level Control): 12.68 mg/dL
- POTASSIUM (0 mg/kg, dose level Control): 6.23 MEQ/L
- SODIUM (0 mg/kg, dose level Control): 143.47 MEQ/L
- TOTAL BILIRUBIN (0 mg/kg, dose level Control): 0.15 mg/dL
- TOTAL PROTEIN (0 mg/kg, dose level Control): 6.33 G/DL
- URIC ACID (0 mg/kg, dose level Control): 1.1 mg/dL
- ABSOLUTE BASOPHIL (1 mg/kg, dose level Low): 0 CELLS/uL
- ABSOLUTE EOSINOPHIL (1 mg/kg, dose level Low): 30.67 CELLS/uL
- ABSOLUTE LYMPHOCYTE (1 mg/kg, dose level Low): 8277.33 CELLS/uL
- ABSOLUTE MONOCYTE (1 mg/kg, dose level Low): 0 CELLS/uL
- ABSOLUTE SEGMENTED NEUTROPHIL (1 mg/kg, dose level Low): 658.67 CELLS/uL
- BASOPHIL (1 mg/kg, dose level Low): 0%
- EOSINOPHIL (1 mg/kg, dose level Low): 0.33%
- ERYTHROCYTE COUNT (1 mg/kg, dose level Low): 5.18 x10E6/uL
- HEMATOCRIT (1 mg/kg, dose level Low): 32.07%
- HEMOGLOBIN (1 mg/kg, dose level Low): 12.3 G/DL
- LEUKOCYTE COUNT (1 mg/kg, dose level Low): 8.97 x10E3/uL
- LYMPHOCYTE (1 mg/kg, dose level Low): 92.33%
- MEAN CORPUSCULAR HEMOGLOBIN (1 mg/kg, dose level Low): 23.7 pg
- MEAN CORPUSCULAR HEMOGLOBIN CONCENTRATION (1 mg/kg, dose level Low): 38.37 G/DL
- MEAN CORPUSCULAR VOLUME (1 mg/kg, dose level Low): 61.9 fL
- MONOCYTE (1 mg/kg, dose level Low): 0%
- NEUTROPHIL (1 mg/kg, dose level Low): 7.33%
- NUCLEATED RED BLOOD CELLS (1 mg/kg, dose level Low): 0.33 /100WBC
- PLATELET COUNT (1 mg/kg, dose level Low): 1019.33 x10E3/uL
- ALANINE AMINOTRANSFERASE (1 mg/kg, dose level Low): 47 u/L
- ALBUMIN (1 mg/kg, dose level Low): 4.37 G/DL
- ALKALINE PHOSPHATASE (1 mg/kg, dose level Low): 374.33 u/L
- ASPARTATE AMINOTRANSFERASE (1 mg/kg, dose level Low): 77.33 u/L
- BLOOD UREA NITROGEN (1 mg/kg, dose level Low): 13.33 mg/dL
- CARBON DIOXIDE (1 mg/kg, dose level Low): 31 mmol/L
- CHLORIDE (1 mg/kg, dose level Low): 97.33 MEQ/L
- CHOLESTEROL (1 mg/kg, dose level Low): 71.67 mg/dL
- CREATINE PHOSPHOKINASE (1 mg/kg, dose level Low): 205 u/L
- CREATININE (1 mg/kg, dose level Low): 0.28 mg/dL
- GLUCOSE (1 mg/kg, dose level Low): 142 mg/dL
- LACTATE DEHYDROGENASE (1 mg/kg, dose level Low): 139.33 u/L
- LIPASE (1 mg/kg, dose level Low): 8 u/L
- PHOSPHORUS (1 mg/kg, dose level Low): 13.07 mg/dL
- POTASSIUM (1 mg/kg, dose level Low): 6.56 MEQ/L
- SODIUM (1 mg/kg, dose level Low): 144.27 MEQ/L
- TOTAL BILIRUBIN (1 mg/kg, dose level Low): 0.17 mg/dL
- TOTAL PROTEIN (1 mg/kg, dose level Low): 6.43 G/DL
- URIC ACID (1 mg/kg, dose level Low): 1.17 mg/dL
- ABSOLUTE BASOPHIL (15 mg/kg, dose level High): 0 CELLS/uL
- ABSOLUTE EOSINOPHIL (15 mg/kg, dose level High): 0 CELLS/uL
- ABSOLUTE LYMPHOCYTE (15 mg/kg, dose level High): 7628 CELLS/uL
- ABSOLUTE MONOCYTE (15 mg/kg, dose level High): 40.67 CELLS/uL
- ABSOLUTE SEGMENTED NEUTROPHIL (15 mg/kg, dose level High): 1198 CELLS/uL
- BASOPHIL (15 mg/kg, dose level High): 0%
- EOSINOPHIL (15 mg/kg, dose level High): 0%
- ERYTHROCYTE COUNT (15 mg/kg, dose level High): 5.54 x10E6/uL
- HEMATOCRIT (15 mg/kg, dose level High): 34.3%
- HEMOGLOBIN (15 mg/kg, dose level High): 13.2 G/DL
- LEUKOCYTE COUNT (15 mg/kg, dose level High): 8.87 x10E3/uL
- LYMPHOCYTE (15 mg/kg, dose level High): 86.67%
- MEAN CORPUSCULAR HEMOGLOBIN (15 mg/kg, dose level High): 23.83 pg
- MEAN CORPUSCULAR HEMOGLOBIN CONCENTRATION (15 mg/kg, dose level High): 38.5 G/DL
- MEAN CORPUSCULAR VOLUME (15 mg/kg, dose level High): 61.97 fL
- MONOCYTE (15 mg/kg, dose level High): 0.33%
- NEUTROPHIL (15 mg/kg, dose level High): 13%
- NUCLEATED RED BLOOD CELLS (15 mg/kg, dose level High): 0.33 /100WBC
- PLATELET COUNT (15 mg/kg, dose level High): 1196.67 x10E3/uL
- ALANINE AMINOTRANSFERASE (15 mg/kg, dose level High): 55 u/L
- ALBUMIN (15 mg/kg, dose level High): 4.43 G/DL
- ALKALINE PHOSPHATASE (15 mg/kg, dose level High): 367.33 u/L
- ASPARTATE AMINOTRANSFERASE (15 mg/kg, dose level High): 84 u/L
- BLOOD UREA NITROGEN (15 mg/kg, dose level High): 14.33 mg/dL
- CARBON DIOXIDE (15 mg/kg, dose level High): 31.67 mmol/L
- CHLORIDE (15 mg/kg, dose level High): 93.33 MEQ/L
- CHOLESTEROL (15 mg/kg, dose level High): 74.33 mg/dL
- CREATINE PHOSPHOKINASE (15 mg/kg, dose level High): 211.67 u/L
- CREATININE (15 mg/kg, dose level High): 0.24 mg/dL
- GLUCOSE (15 mg/kg, dose level High): 139.33 mg/dL
- LACTATE DEHYDROGENASE (15 mg/kg, dose level High): 153 u/L
- LIPASE (15 mg/kg, dose level High): 8.33 u/L
- PHOSPHORUS (15 mg/kg, dose level High): 13.23 mg/dL
- POTASSIUM (15 mg/kg, dose level High): 6.15 MEQ/L
- SODIUM (15 mg/kg, dose level High): 144.7 MEQ/L
- TOTAL BILIRUBIN (15 mg/kg, dose level High): 0.1 mg/dL
- TOTAL PROTEIN (15 mg/kg, dose level High): 6.63 G/DL
- URIC ACID (15 mg/kg, dose level High): 1.43 mg/dL
